Reference: US20070072897A1, “Phenylaminopropanol derivatives and methods of their use” (Wyeth, priority 2005, published 2007)
Counter-ions that a name gives are not always drawn.

Target: T1, human hNET (Homo sapiens, UniProt P23975)
T1 construct: expressed in transfected cells; host or cells: MDCK (MDCK-Net6)
Experiment: Norepinephrine (NE) uptake assay in MDCK-Net6 cells
Format: cell-based
Details: [3H]NE uptake; for EC50: MDCK-Net6 cells stably transfected with hNET; for inhibition at 1 µM: MDCK-Net6 cells, read-out: hNET Percentage inhibition at 1 μM
Protocol: Cells were plated at 300,000/T75 flask and cells were split twice weekly. […] Cells were plated at 250,000 cells/T75 flask and split twice weekly.
Norepinephrine (NE) Uptake Assay
On day 1, cells were plated at 3,000 cells/well in growth medium and maintained in a cell incubator (37° C., 5% CO2). On day 2, growth medium was replaced with 200 μl of assay buffer (25 mM HEPES; 120 mM NaCl; 5 mM KCl; 2.5 mM CaCl2; 1.2 mM MgSO4; 2 mg/ml glucose (pH 7.4, 37° C.)) containing 0.2 mg/ml ascorbic acid and 10 μM pargyline. Plates containing cells with 200 μl of assay buffer were equilibrated for 10 minutes at 37° C. prior to addition of compounds. A stock solution of desipramine was prepared in DMSO (10 mM) and delivered to triplicate wells containing cells for a final test concentration of 1 μM. Data from these wells were used to define non-specific NE uptake (minimum NE uptake). Test compounds were prepared in DMSO (10 mM) and diluted in assay buffer according to test range (1 to 10,000 nM). Twenty-five microliters of assay buffer (maximum NE uptake) or test compound were added directly to triplicate wells containing cells in 200 μl of assay buffer. The cells in assay buffer with test compounds were incubated for 20 minutes at 37° C. […] The reaction was terminated by decanting the supernatant from the plate. The plates containing cells were washed twice with 200 μl assay buffer (37° C.) to remove free radioligand. The plates were then inverted, left to dry for 2 minutes, then reinverted and air-dried for an additional 10 minutes. […] After cell lysis, 75 μl of scintillation cocktail was added to each well and the plates were sealed with film tape. The plates were returned to the shake table and vigorously shaken for a minimum of 10 minutes to ensure adequate partitioning of organic and aqueous solutions. The plates were counted in a Wallac Microbeta counter (PerkinElmer) to collect the raw cpm data.
For each experiment, a data stream of cpm values collected from the Wallac Microbeta counter was downloaded to a Microsoft Excel statistical application program. Calculations of EC50 values were made using the transformed-both-sides logistic dose response program written by Wyeth Biometrics Department.

T1 sequence (P23975 whole entry): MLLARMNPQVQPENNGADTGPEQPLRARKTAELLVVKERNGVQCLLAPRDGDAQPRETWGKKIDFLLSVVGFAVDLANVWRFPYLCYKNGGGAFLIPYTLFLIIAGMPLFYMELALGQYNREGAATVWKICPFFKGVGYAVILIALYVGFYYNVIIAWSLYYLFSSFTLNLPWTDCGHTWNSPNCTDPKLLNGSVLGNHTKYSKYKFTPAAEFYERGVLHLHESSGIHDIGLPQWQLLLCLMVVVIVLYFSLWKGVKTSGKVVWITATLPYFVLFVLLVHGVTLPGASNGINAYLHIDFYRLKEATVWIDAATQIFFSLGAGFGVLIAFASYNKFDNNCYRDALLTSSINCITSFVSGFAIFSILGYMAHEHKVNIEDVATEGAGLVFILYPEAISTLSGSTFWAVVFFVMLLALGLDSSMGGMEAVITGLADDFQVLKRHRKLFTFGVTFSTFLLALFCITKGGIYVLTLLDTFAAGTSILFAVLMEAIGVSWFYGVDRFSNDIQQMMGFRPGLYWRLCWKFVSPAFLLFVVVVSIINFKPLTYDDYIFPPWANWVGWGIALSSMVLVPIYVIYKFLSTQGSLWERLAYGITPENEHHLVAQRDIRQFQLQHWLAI

| EC50 [nM] | inhibition at 1 µM [%] | SMILES |
| --- | --- | --- |
|  | 26 | CNC[C@@H](O)[C@H](c1cccc(F)c1)n1cc(-c2ccccc2Oc2ccccc2)c2ccccc21 [Example 37, (1S,2R)-1-(3-fluorophenyl)-3-(methylamino)-1-[3-(2-phenoxyphenyl)-1H-indol-1-yl]propan-2-ol hydrochloride] |
| 299 |  | CNC[C@@H](O)[C@H](c1cccc(F)c1)n1ccc2cc(OC)nc(Cl)c21 [Example 43, (1S,2R)-1-(7-chloro-5-methoxy-1H-pyrrolo[2,3-c]pyridin-1-yl)-1-(3-fluorophenyl)-3-(methylamino)propan-2-ol hydrochloride] |
|  | 43 | CNC[C@@H](O)[C@H](c1ccccc1)n1ccc2cc(OC)ncc21 [Example 45, (1S,2R)-1-(5-methoxy-1H-pyrrolo[2,3-c]pyridin-1-yl)-3-(methylamino)-1-phenylpropan-2-ol hydrochloride] |
|  | 51 | CNC[C@@H](O)[C@H](c1cccc(F)c1)n1ccc2cc(C)ncc21 [Example 48, (1S,2R)-1-(3-fluorophenyl)-3-(methylamino)-1-(5-methyl-1H-pyrrolo[2,3-c]pyridin-1-yl)propan-2-ol hydrochloride] |
|  | 51 | CNC[C@@H](O)[C@H](c1ccccc1)n1ccc2ccnc(C)c21 [Example 49, (1S,2R)-3-(methylamino)-1-(7-methyl-1H-pyrrolo[2,3-c]pyridin-1-yl)-1-phenylpropan-2-ol hydrochloride] |
| 521 |  | CNC[C@@H](O)[C@H](c1cccc(F)c1)n1ccc2ccnc(C)c21 [Example 50, (1S,2R)-1-(3-fluorophenyl)-3-(methylamino)-1-(7-methyl-1H-pyrrolo[2,3-c]pyridin-1-yl)propan-2-ol hydrochloride] |
|  | 49 | CNC[C@@H](O)[C@H](c1cccc(F)c1)N1CCN(Cc2ccccc2)c2ccccc21 [Example 53, (1S,2R)-1-(4-benzyl-3,4-dihydroquinoxalin-1(2H)-yl)-1-(3-fluorophenyl)-3-(methylamino)propan-2-ol hydrochloride] |
| 16 |  | CCC1CN([C@@H](c2ccccc2)[C@H](O)CNC)c2ccccc21 (stereo partly drawn) [Example 59, (1S,2R)-1-(3-ethyl-2,3-dihydro-1H-indol-1-yl)-3-(methylamino)-1-phenylpropan-2-ol hydrochloride] |
| 20 |  | CNC[C@@H](O)[C@H](c1cc(F)cc(F)c1)N1C(=O)C(C)(C)c2ccccc21 [Example 64, 1-[(1S,2R)-1-(3,5-difluorophenyl)-2-hydroxy-3-(methylamino)propyl]-3,3-dimethyl-1,3-dihydro-2H-indol-2-one hydrochloride] |
| 3 |  | CNC[C@@H](O)[C@H](c1cccc(F)c1)n1ccc2cc(O)ccc21 [Example 66, 1-[(1S,2R)-1-(3-fluorophenyl)-2-hydroxy-3-(methylamino)propyl]-1H-indol-5-ol hydrochloride] |
| 839 |  | CNC[C@@H](O)[C@H](c1ccccc1)N1C(=O)C2(CCCCC2)c2cc(OCc3ccccc3)ccc21 [Example 67, 5′-(benzyloxy)-1′-[(1S,2R)-2-hydroxy-3-(methylamino)-1-phenylpropyl]spiro[cyclohexane-1,3′-indol]-2′(1′H)-one hydrochloride] |
| 240 |  | CNC[C@@H](O)[C@H](c1ccccc1)N1C(=O)C(C)(C)c2cc(OCc3ccccc3)ccc21 [Example 68, 5-benzyloxy-1-[(1S,2R)-2-hydroxy-3-(methylamino)-1-phenylpropyl]-3,3-dimethyl-1,3-dihydro-2H-indol-2-one hydrochloride] |
| 92 |  | CNC[C@@H](O)[C@H](c1cccc(Cl)c1)N1C(=O)C(C)(C)c2cccc(F)c21 [Example 69, 1-[(1S,2R)-1-(3-chlorophenyl)-2-hydroxy-3-(methylamino)propyl]-7-fluoro-3,3-dimethyl-1,3-dihydro-2H-indol-2-one hydrochloride] |

Continued, molecule first:

| SMILES | EC50 [nM] | inhibition at 1 µM [%] |
| --- | --- | --- |
| CNC[C@@H](O)[C@H](c1cccc(F)c1)n1cc(-c2ccccc2OC(F)(F)F)c2ccccc21 [Example 34, (1S,2R)-1-(3-fluorophenyl)-3-(methylamino)-1-{3-[2-(trifluoromethoxy)phenyl]-1H-indol-1-yl}propan-2-ol hydrochloride] | 327 |  |
| CNC[C@@H](O)[C@H](c1cccc(F)c1)n1cc(-c2ccccc2OC(C)C)c2ccccc21 [Example 35, (1S,2R)-1-(3-fluorophenyl)-3-(methylamino)-1-{3-[2-(isopropoxy)phenyl]-1H-indol-1-yl}propan-2-ol hydrochloride] | 169 |  |
| CNC[C@@H](O)[C@H](c1cccc(F)c1)n1cc(-c2ccc(F)cc2)c2ccccc21 [Example 36, (1S,2R)-1-(3-fluorophenyl)-1-[3-(4-fluorophenyl)-1H-indol-1-yl]-3-(methylamino)propan-2-ol hydrochloride] | 711 |  |
| CNC[C@@H](O)[C@H](c1cccc(F)c1)n1cc(-c2ccc(F)cc2F)c2ccccc21 [Example 38, (1S,2R)-1-[3-(2,4-difluorophenyl)-1H-indol-1-yl]-1-(3-fluorophenyl)-3-(methylamino)propan-2-ol hydrochloride] | 135 |  |
| CNC[C@@H](O)[C@H](c1cccc(F)c1)n1cc(-c2cc(F)ccc2F)c2ccccc21 [Example 39, (1S,2R)-1-[3-(2,5-difluorophenyl)-1H-indol-1-yl]-1-(3-fluorophenyl)-3-(methylamino)propan-2-ol hydrochloride] | 70 |  |
| CNC[C@@H](O)[C@H](c1cccc(F)c1)n1cc(-c2cccc(OC)c2OC)c2ccccc21 [Example 40, (1S,2R)-1-[3-(2,3-dimethoxyphenyl)-1H-indol-1-yl]-1-(3-fluorophenyl)-3-(methylamino)propan-2-ol hydrochloride] | 41 |  |
| CNC[C@@H](O)[C@H](c1cccc(F)c1)n1cc(-c2ccc(Cl)cc2Cl)c2ccccc21 [Example 41, (1S,2R)-1-[3-(2,4-dichlorophenyl)-1H-indol-1-yl]-1-(3-fluorophenyl)-3-(methylamino)propan-2-ol hydrochloride] | 193 |  |
| CCOc1ccccc1-c1cn([C@@H](c2cccc(F)c2)[C@H](O)CNC)c2ccccc12 [Example 42, (1S,2R)-1-[3-(2-ethoxyphenyl)-1H-indol-1-yl]-1-(3-fluorophenyl)-3-(methylamino)propan-2-ol hydrochloride] | 71 |  |
| CNC[C@@H](O)[C@H](c1ccccc1)n1ccc2cc(C)nc(Cl)c21 [Example 44, (1S,2R)-1-(7-chloro-5-methyl-1H-pyrrolo[2,3-c]pyridin-1-yl)-3-(methylamino)-1-phenylpropan-2-ol hydrochloride] | 416 |  |
| CNC[C@@H](O)[C@H](c1cccc(F)c1)n1ccc2cc(OC)ncc21 [Example 46, (1S,2R)-1-(3-fluorophenyl)-1-(5-methoxy-1H-pyrrolo[2,3-c]pyridin-1-yl)-3-(methylamino)propan-2-ol hydrochloride] |  | 46 |
| CNC[C@@H](O)[C@H](c1ccccc1)n1ccc2cc(C)ncc21 [Example 47, (1S,2R)-3-(methylamino)-1-(5-methyl-1H-pyrrolo[2.3-c]pyridin-1-yl)-1-phenylpropan-2-ol hydrochloride] |  | 35 |
| CNC[C@@H](O)[C@H](c1ccccc1)N1CC(C(C)C)c2ccccc21 (stereo partly drawn) [Example 60, (1S,2R)-1-(3-isopropyl-2,3-dihydro-1H-indol-1-yl)-3-(methylamino)-1-phenylpropan-2-ol hydrochloride] | 67 |  |
| CC1(C)CN([C@@H](c2cc(F)cc(F)c2)[C@H](O)CN)c2ccccc21 [Example 61, (1S,2R)-3-amino-1-(3,5-difluorophenyl)-1-(3,3-dimethyl-2,3-dihydro-1H-indol-1-yl)propan-2-ol hydrochloride] | 216 |  |
| CNC[C@@H](O)[C@H](c1cc(F)cc(F)c1)N1C(=O)C(C)(C)c2cccc(F)c21 [Example 62, 1-[(1S,2R)-1-(3,5-difluorophenyl)-2-hydroxy-3-(methylamino)propyl]-7-fluoro-3,3-dimethyl-1,3-dihydro-2H-indol-2-one hydrochloride] | 4 |  |
| CNC[C@@H](O)[C@H](c1cccc(F)c1)N1C(=O)C(C)(C)c2cc(F)cc(F)c21 [Example 63, 5,7-difluoro-1-[(1S,2R)-1-(3-fluorophenyl)-2-hydroxy-3-(methylamino)propyl]-3,3-dimethyl-1,3-dihydro-2H-indol-2-one hydrochloride] | 51 |  |
| CNC[C@@H](O)[C@H](c1ccccc1)n1ccc2cc(O)ccc21 [Example 65, 1-[(1S,2R)-2-hydroxy-3-(methylamino)-1-phenylpropyl]-1H-indol-5-ol hydrochloride] | 55 |  |
